Experimental data from patent publication US7037644B1, “Means and methods for monitoring non-nucleoside reverse transcriptase inhibitor antiretroviral therapy and guiding therapeutic decisions in the treatment of HIV/AIDS” (ViroLogic, Inc., priority 1998, dated 2006).
Entries after “also recorded” stand apart in the source; their conditions may differ.

How the values were obtained:
[1] = test system: RTV-955, patient 98-955 (RT K101E, K103N, Y181C, G190A mixtures); assay: Phenotypic susceptibility assay (patient RTV); format: cell-based, HIV-1; conditions: patient RTV pool
Experimental: (§1) The resistance test vectors containing a functional luciferase gene cassette were constructed and host cells were transfected with the resistance test vector DNA. The resistant test vectors contained patient-derived reverse transcriptase and protease sequences that were either susceptible or resistant to the antiretroviral agents, such as nucleoside reverse transcriptase inhibitors, non-nucleoside reverse transcriptase inhibitors and protease inhibitors. […] The IC50 values were determined by plotting percent drug inhibition vs. log10 drug concentration.
(§2) Host cells were seeded in 10-cm-diameter dishes and were transfected several days after plating with resistance test vector plasmid DNA and the envelope expression vector. […] HIV capsid protein (p24) levels in the harvested cell culture media were determined by an EIA method as described by the manufacturer (SIAC; Frederick, Md.). […] The inhibitory effect of the drug was determined using the following equation: % luciferase inhibition=1−(RLUluc [drug]÷RLUluc)×100 where RLUluc [drug] is the relative light unit of luciferase activity in infected cells in the presence of drug and RLUluc is the Relative Light Unit of luciferase activity in infected cells in the absence of drug. […]

Y188H-RTV = assay: Phenotypic susceptibility assay (site directed mutant RTV); format: cell-based, HIV-1; conditions: Y188H alone
Experimental: as §1, §2

[2] = test system: RTV-964, patient 98-964 (RT Y181I); assay: Phenotypic susceptibility assay (patient RTV); format: cell-based, HIV-1; conditions: patient RTV pool
Experimental: as §1, §2

[3] = molecular target: RT with P236L substitution (Human immunodeficiency virus type 1 group M subtype B, UniProt P04585, P823L); conditions: P236L substitution sensitizes RT; cited from earlier work
Y181 C mutation variant = conditions: Y181C selected during nevirapine monotherapy; cited from earlier work
[4] = test system: RTV-268, patient 97-268 (RT M41L, D67N, M184V, L210W, T215Y, K219Q, P236L); assay: Phenotypic susceptibility assay (patient RTV); format: cell-based, HIV-1; conditions: patient virus RTV-268 vs reference virus
Text: (§3) The resistance test vectors containing a functional luciferase gene cassette were constructed and host cells were transfected with the resistance test vector DNA. The resistant test vectors contained patient-derived reverse transcriptase and protease sequences that were either susceptible or resistant to the antiretroviral agents, such as nucleoside reverse transcriptase inhibitors, non-nucleoside reverse transcriptase inhibitors and protease inhibitors. The resistance test vector viral particles produced by transfecting the resistance test vector DNA into host cells, either in the presence or absence of protease inhibitors, were used to infect target host cells grown either in the absence of NRTI or NNRTI or in the presence of increasing concentrations of the drug. The amount of luciferase activity produced in infected target host cells in the presence of drug was compared to the amount of luciferase produced in infected target host cells in the absence of drug. Drug resistance was measured as the amount of drug required to inhibit by 50% the luciferase activity detected in the absence of drug (inhibitory concentration 50%, IC50). The IC50 values were determined by plotting percent drug inhibition vs. log10 drug concentration.
(§4) Host cells were seeded in 10-cm-diameter dishes and were transfected several days after plating with resistance test vector plasmid DNA and the envelope expression vector. Transfections were performed using a calcium-phosphate precipitation procedure. The cell culture media containing the DNA precipitate was replaced with fresh medium, from one to 24 hours, after transfection. Cell culture media containing resistance test vector viral particles was harvested one to four days after transfection and was passed through a […] filter before being stored at […]. HIV capsid protein (p24) levels in the harvested cell culture media were determined by an EIA method as described by the manufacturer (SIAC; Frederick, Md.). Before infection, target cells (293 and 293/T) were plated in cell culture media. Control infections were performed using cell culture media from mock transfections (no DNA) or transfections containing the resistance test vector plasmid DNA without the envelope expression plasmid. One to three or more days after infection the media was removed and cell lysis buffer (Promega) was added to each well. Cell lysates were assayed for luciferase activity (FIG. 3). The inhibitory effect of the drug was determined using the following equation: % luciferase inhibition=1−(RLUluc [drug]÷RLUluc)×100 where RLUluc [drug] is the relative light unit of luciferase activity in infected cells in the presence of drug and RLUluc is the Relative Light Unit of luciferase activity in infected cells in the absence of drug. IC50 values were obtained from the sigmoidal curves that were generated from the data by plotting the percent inhibition of luciferase activity vs. the log10 drug concentration. The drug inhibition curves are shown in (FIG. 3).
A resistance test vector was constructed as described in Example 1 from a patient sample designated 97-268. This patient had been treated with AZT and 3TC (NRTIs), indinavir and saquinavir (PRIs) and delavirdine (an NNRTI) for periods varying from 1 month to 2 years. Isolation of viral RNA and RT/PCR was used to generate a patient derived segment that comprised viral sequences coding for all of PR and amino acids 1-313 of RT. The patient derived segment was inserted into a indicator gene viral vector to generate a resistance test vector designated RTV-268. RTV-268 was then tested using the phenotypic susceptibility assay to determine accurately and quantitatively the level of susceptibility to a panel of anti-retroviral drugs. This panel of anti-retroviral drugs comprised members of the classes known as NRTIs (AZT, 3TC, d4T, ddI and ddC), NNRTIs (delavirdine and nevirapine), and PRIs (indinavir, nelfinavir, ritonavir, and saquinavir). An IC50 was determined for each drug tested. […]

[5] = test system: RTV with L100I mutation alone; assay: Phenotypic susceptibility assay (site directed mutant RTV); format: cell-based, HIV-1
Text: as §3, §4
The mutations Y188L, L100I and K103N were introduced alone and in combinationn into resistance test vectors using the mega-primer method for site-directed mutagenesis (Sakar and Sommar, Ibid.).

Row | Compound | decrease in susceptibility (fold, IC50) [1] [fold] | loss of susceptibility (fold, IC50) vs wild type control RTV (Y188H-RTV) [fold] | decrease in susceptibility (fold, IC50) [2] [fold] | reduction of IC50 [3] | reduction in sensitivity (Y181 C mutation variant) [fold] | change in susceptibility [4] | loss of susceptibility (fold, IC50) vs wild type control RTV [5] [fold]
1 | CC(C)Nc1cccnc1N1CCN(C(=O)c2cc3cc(NS(C)(=O)=O)ccc3[nH]2)CC1 [delavirdine] | 4 | – | – | – | – | – | –
2 | Cc1ccnc2c1NC(=O)c1cccnc1N2C1CC1 [nevirapine] | 530 | 3.5 | 750 | 7- to 10 fold | 100 | no change; also recorded: same as wild type | 3
